# Reference: ChEMBL document CHEMBL3600310 (J Med Chem, 2015)
# What was measured:
# Assay type in all cases: functional, cell-based
# [1] = system: HCT-116; test: Cytotoxicity against human HCT116 cells after 72 hrs by MTT assay; settings: HCT-116, 72 h
# [2] = system: MDA-MB-435; test: Cytotoxicity against human MDA-MB-435 cells after 72 hrs by MTT assay; settings: MDA-MB-435, 72 h
# [3] = system: A549; test: Cytotoxicity against human A549 cells after 72 hrs by MTT assay; settings: A549, 72 h
structure (smiles),measurement,setting,value
CN1c2ccn(C)c2C(=O)N2CCc3c([nH]c4ccc(O)cc34)C21 (stereo not given),IC50,[1],15.4 µM
same,IC50,[2],11.7 µM
same,IC50,[3],5 µM
O=C1c2cc(Br)ccc2OC2c3[nH]c4ccc(O)cc4c3CCN12 (stereo not given),IC50,[1],< 0.003 µM
same,IC50,[2],< 0.003 µM
same,IC50,[3],0.06 µM
COc1ccc2[nH]c3c(c2c1)CCN1C(=O)c2ccc(C)cc2OC31 (stereo not given),IC50,[1],> 200 µM
same,IC50,[2],198 µM
same,IC50,[3],> 200 µM
Cc1ccc2c(c1)OC1c3[nH]c4ccccc4c3CCN1C2=S (stereo not given),IC50,[1],44.4 µM
same,IC50,[2],60.3 µM
same,IC50,[3],65.2 µM
O=C1c2c(ccc3ccccc23)OC2c3[nH]c4ccc(O)cc4c3CCN12 (stereo not given),IC50,[1],6.3 µM
same,IC50,[2],2.7 µM
same,IC50,[3],3.1 µM
COc1ccc2[nH]c3c(c2c1)CCN1C(=O)c2cc(Br)ccc2OC31 (stereo not given),IC50,[1],5.4 µM
same,IC50,[2],7.1 µM
same,IC50,[3],2.6 µM
CCNc1ccc2c(c1)C(=O)N1CCc3c([nH]c4ccccc34)C1O2 (stereo not given),IC50,[1],39.4 µM
same,IC50,[2],> 200 µM
same,IC50,[3],> 200 µM
O=C1c2c(F)cccc2OC2c3[nH]c4ccccc4c3CCN12 (stereo not given),IC50,[1],31 µM
same,IC50,[2],71 µM
same,IC50,[3],35.1 µM
CC(=O)Nc1ccc2c(c1)C(=O)N1CCc3c([nH]c4ccccc34)C1O2 (stereo not given),IC50,[1],5.8 µM
same,IC50,[2],19.6 µM
same,IC50,[3],20.1 µM
O=C1c2cc(Cl)cc(Cl)c2OC2c3[nH]c4ccccc4c3CCN12 (stereo not given),IC50,[1],6.7 µM
same,IC50,[2],14.2 µM
same,IC50,[3],1.8 µM
COc1cccc2c1OC1c3[nH]c4ccccc4c3CCN1C2=O (stereo not given),IC50,[1],2.21 µM
same,IC50,[2],16.9 µM
same,IC50,[3],26.8 µM
O=C1c2ccc(Cl)cc2OC2c3[nH]c4ccc(O)cc4c3CCN12 (stereo not given),IC50,[1],18.7 µM
same,IC50,[2],7.1 µM
same,IC50,[3],10.6 µM
CN1c2ccoc2C(=O)N2CCc3c([nH]c4ccccc34)C21 (stereo not given),IC50,[1],178 µM
same,IC50,[2],182 µM
same,IC50,[3],> 200 µM
CN1c2cscc2C(=O)N2CCc3c([nH]c4ccc(O)cc34)C21 (stereo not given),IC50,[1],4.8 µM
same,IC50,[2],32.3 µM
same,IC50,[3],3.9 µM
O=C1c2cccc(O)c2OC2c3[nH]c4ccc(O)cc4c3CCN12 (stereo not given),IC50,[1],53.4 µM
same,IC50,[2],66.2 µM
same,IC50,[3],> 200 µM
COc1ccc2c(c1)C(=O)N1CCc3c([nH]c4ccccc34)C1O2 (stereo not given),IC50,[1],25.6 µM
same,IC50,[2],> 200 µM
same,IC50,[3],14.8 µM
Cc1cccc2c1C(=O)N1CCc3c([nH]c4ccccc34)C1O2 (stereo not given),IC50,[1],38.1 µM
same,IC50,[2],> 200 µM
same,IC50,[3],> 200 µM
COc1ccc2[nH]c3c(c2c1)CCN1C(=O)c2ccccc2C31O (stereo not given),IC50,[1],> 200 µM
same,IC50,[2],> 200 µM
same,IC50,[3],> 200 µM
COc1ccc2oc3c(c2c1)CCCN1C(=O)c2ccccc2N(C)C31 (stereo not given),IC50,[1],5.3 µM
same,IC50,[2],28.4 µM
same,IC50,[3],6.2 µM
O=C1c2cc(I)cc(I)c2OC2c3[nH]c4ccccc4c3CCN12 (stereo not given),IC50,[1],24.4 µM
same,IC50,[2],> 200 µM
same,IC50,[3],> 200 µM
